Data from US20200268864A1, “CANCER VACCINE COMPOSITIONS AND METHODS FOR USING SAME TO TREAT CANCER” (Dana-Farber Cancer Institute, Inc., priority 2017, published 2020).
“Also recorded” adds a separate entry of the source.

Key:
[1] = test system: PBM tumors (Trp53−/−; Brca1−/−; c-Myc); test: Orthotopic PBM tumor allograft growth and survival (bioluminescence); format: in vivo, mouse
Procedure: All animal experiments described in this study were performed according to the animal protocols approved by the DFCI Institutional Animal Care and Use Committee. Brca1^loxP/loxP [FVB/N] mice, bearing loxP sites in introns 4 and 13 of the Brca1 gene, and Trp53^loxP/loxP[FVB/N] mice bearing loxP in introns 2 and 10 of the p53 gene, were obtained from Dr. Jos Jonkers's laboratory (Netherlands Cancer Institute, Amsterdam, The Netherlands). These mice were intercrossed through multiple generations to create a colony of homozygous Trp53^loxP/loxP/Brca1^loxP/loxP double conditional knockout mice. Ovaries were harvested from 8-week-old female Trp53^loxP/loxP/Brca1^loxP/loxP mice. The ovaries were washed twice with phosphate-buffered and incubated in DMEM/F12 (Ham's) medium containing collagenase and dispase (stem cell technologies) for 40 min at 37° C. The epithelial cells were pelleted by centrifugation at 800×g and cultured in DMEM/F12 (Life Technologies) supplemented with 4% (vol/vol) FBS, 1% penicillin/streptomycin, 10 ng/mL EGF, 5 μg/mL insulin, 5 Cpg/mL transferrin, and 5 ng/mL sodium selenite. Ovarian surface epithelial (OSE) cells were cultured for 48 hr and then introduced with Adeno-Cre (University of Iowa) and lentiviruses expressing C-Myc gene (Addgene #36980) or control GFP. After two days of infection in vitro, OSE cells are aggregated and implanted into recipient mice. About 5×10^5 OSE cells (Trp53^−/−; Brca1^−/−; c-Myc) were injected into the right ovarian bursal cavities of 6- to 7-week-old female nude mice. In each mouse, the left ovarian bursa was injected with GFP-expressing OSE cells (Trp53^−/−; Brca1^−/−; GFP). PBM (Trp53^−/−; Brca1^−/−; c-Myc) ovarian tumors developed within three to six months after implantation of the genetically engineered OSE cells. The primary ovarian tumors were digested and orthotopically transplanted to FVB/NJ mice. The PPM GEM model (Trp53^−/−; Pten^−/−; c-Myc) was developed with OSE cells isolated from homozygous Trp53^loxP/loxP/Pten^loxP/loxP(FVB/NJ) double conditional knockout mice using the same strategy for generation of the PBM GEM model described above. For histological analysis, tumor pieces were fixed in 10% Formalin overnight and transferred to 70% ethanol. Embedding, sectioning and H&E staining was performed by scientists at the Harvard rodent histopathology core facility. The histological characteristics of high grade ovarian tumor were confirmed by two independent pathologists at Harvard Medical School.
(§1) Single cells were obtained by digestion of primary ovarian tumors in collagenase buffer and then cultured in MOT media (DMEM/F12, 0.6% FBS, 10 ng/ml EGF, hydrocortisone 1 μg/ml, cholera toxin 1 ng/ml, 100 μg/ml penicillin-streptomycin, 5 μM Y27632). […] The endpoints were determined by tumor burden and ascites. […]

[2] = test system: PPM tumors (Trp53−/−; Pten−/−; c-Myc); test: Orthotopic PPM tumor growth (bioluminescence); conditions: mouse, in vivo
Procedure: All animal experiments described in this study were performed according to the animal protocols approved by the DFCI Institutional Animal Care and Use Committee. Brca1^loxP/loxP [FVB/N] mice, bearing loxP sites in introns 4 and 13 of the Brca1 gene, and Trp53^loxP/loxP[FVB/N] mice bearing loxP in introns 2 and 10 of the p53 gene, were obtained from Dr. Jos Jonkers's laboratory (Netherlands Cancer Institute, Amsterdam, The Netherlands). These mice were intercrossed through multiple generations to create a colony of homozygous Trp53^loxP/loxP/Brca1^loxP/loxP double conditional knockout mice. Ovaries were harvested from 8-week-old female Trp53^loxP/loxP/Brca1^loxP/loxP mice. The ovaries were washed twice with phosphate-buffered and incubated in DMEM/F12 (Ham's) medium containing collagenase and dispase (stem cell technologies) for 40 min at 37° C. […]
as §1

PBM tumor-bearing mice = test: Cytokine array of plasma/sera; format: in vivo, mouse; conditions: day 2 of treatment
Procedure: Blood was obtained by retro-orbital sampling at intermediate time points or experimental end points. Blood cells and plasma/sera were separated by centrifugation at 1,500×g for 5 min. at 4° C. Plasmaisera were sent out to Eve Technologies for cytokine array analysis (Chemokine Array 31-Plex and Mouse Procarta IFN 2-plex Featured Assay). Plasma/sera were applied to ELISA according to manufacturer's instructions. For in vitro experiments, cell culture supernatants were obtained by centrifugation at 1,500×g for 5 min. at 4° C. to remove all debris and cells, and were then subjected to ELISA analysis. IFN-β was detected using the LEGEND MAX™ Mouse IFN-β ELISA Kit (BioLegend).

[3] = test system: PP tumors (Pten−/−; Trp53−/−); test: PP tumor growth after intratumoral injection of PBM or PP cells plus olaparib; format: in vivo, mouse; conditions: 10^6 cells IT on day 1, 5, 9; olaparib 50 mg/kg/day IP from day 1
Procedure: All animal experiments described in this study were performed according to the animal protocols approved by the DFCI Institutional Animal Care and Use Committee. Pten^−/−; Trp53^−/− (termed PP) mammary epithelial tumor cells were derived from syngeneic FVB/N genetically engineered mouse model of breast tumors driven by concurrent loss of PTEN and P53 (K14-Cre/Pten^L/L, Trp53^L/L). 10^6 PP cells in 100 μl of 40% Matrigel® Matrix (Corning) in DMEM were injected into the mammary fat pad of FVB/N1 mice. When tumors were about 100-200 mm^3 in volume, three injections of 10^6 of Trp53^−/−; Brca1^−/−; c-Myc (termed PBM) ovarian surface epithelial tumor cells or PP cells were administered intraturnorally (IT) on day 1, 5, and 9, respectively. Mice were also administered 50 mg/kg/day of olaparib (AZD2281) in 10% DMSO via intraperitoneal injection (IP) from day 1. Olaparib was prepared by diluting 100 mg/ml stocks in DMSO with 10% of 2-hydroxyl-propyl-β-cyclodextrine (Sigma) in PBS. In another cohort of PP tumor, two doses of DMXAA (Sigma, 500 μg/dose) resuspended in 7.5% of NaHCO3 or vehicle control were injected IT over a one-week period. Tumor volume was calculated using the formula: V=0.52×length×width×width.

O=C(c1cc(Cc2n[nH]c(=O)c3ccccc23)ccc1F)N1CCN(C(=O)C2CC2)CC1 [olaparib, Olaparib]
tumor growth / tumor progression (tumor burden by bioluminescence) ([1]; PBM tumor-bearing FVB mice, olaparib 50 mg/kg daily i.p., anti-PD-1 250 μg/mouse i.p. every 3 days): significantly delayed tumor progression; also recorded: delayed tumor growth; also recorded: effectively inhibit the growth
therapeutic effect of olaparib in Rag1−/− host mice ([1]; PBM tumors in Rag1−/− vs wild-type FVB mice): partially abrogated
survival of PBM tumor-bearing mice ([1]; mouse, in vivo): significantly prolonged the survival; also recorded: eventually succumbed to the disease
progression of Brca-proficient PPM tumors [2]: little effect and not
plasma/sera cytokine levels (CXCL9, CXCL10, IFNβ and others) (PBM tumor-bearing mice): significant increase; also recorded: increased levels of multiple cytokines
plasma/sera cytokine levels (CXCL9, CXCL10, IFNβ and others) (PBM tumor-bearing mice; listed as Olaparib): changes on the levels of various cytokines
PP tumor growth [3]: suppressed the growth of PP tumors
